Measurements: US11584734B2, “Tricyclic compounds as histone methyltransferase inhibitors” (GLOBAL BLOOD THERAPEUTICS, INC., priority 2017, dated 2023)
pIC50: −log10 of the molar value.

Molecular target: T1, G9a (Homo sapiens, UniProt Q96KQ7)
T1 sequence (Q96KQ7 1-1210): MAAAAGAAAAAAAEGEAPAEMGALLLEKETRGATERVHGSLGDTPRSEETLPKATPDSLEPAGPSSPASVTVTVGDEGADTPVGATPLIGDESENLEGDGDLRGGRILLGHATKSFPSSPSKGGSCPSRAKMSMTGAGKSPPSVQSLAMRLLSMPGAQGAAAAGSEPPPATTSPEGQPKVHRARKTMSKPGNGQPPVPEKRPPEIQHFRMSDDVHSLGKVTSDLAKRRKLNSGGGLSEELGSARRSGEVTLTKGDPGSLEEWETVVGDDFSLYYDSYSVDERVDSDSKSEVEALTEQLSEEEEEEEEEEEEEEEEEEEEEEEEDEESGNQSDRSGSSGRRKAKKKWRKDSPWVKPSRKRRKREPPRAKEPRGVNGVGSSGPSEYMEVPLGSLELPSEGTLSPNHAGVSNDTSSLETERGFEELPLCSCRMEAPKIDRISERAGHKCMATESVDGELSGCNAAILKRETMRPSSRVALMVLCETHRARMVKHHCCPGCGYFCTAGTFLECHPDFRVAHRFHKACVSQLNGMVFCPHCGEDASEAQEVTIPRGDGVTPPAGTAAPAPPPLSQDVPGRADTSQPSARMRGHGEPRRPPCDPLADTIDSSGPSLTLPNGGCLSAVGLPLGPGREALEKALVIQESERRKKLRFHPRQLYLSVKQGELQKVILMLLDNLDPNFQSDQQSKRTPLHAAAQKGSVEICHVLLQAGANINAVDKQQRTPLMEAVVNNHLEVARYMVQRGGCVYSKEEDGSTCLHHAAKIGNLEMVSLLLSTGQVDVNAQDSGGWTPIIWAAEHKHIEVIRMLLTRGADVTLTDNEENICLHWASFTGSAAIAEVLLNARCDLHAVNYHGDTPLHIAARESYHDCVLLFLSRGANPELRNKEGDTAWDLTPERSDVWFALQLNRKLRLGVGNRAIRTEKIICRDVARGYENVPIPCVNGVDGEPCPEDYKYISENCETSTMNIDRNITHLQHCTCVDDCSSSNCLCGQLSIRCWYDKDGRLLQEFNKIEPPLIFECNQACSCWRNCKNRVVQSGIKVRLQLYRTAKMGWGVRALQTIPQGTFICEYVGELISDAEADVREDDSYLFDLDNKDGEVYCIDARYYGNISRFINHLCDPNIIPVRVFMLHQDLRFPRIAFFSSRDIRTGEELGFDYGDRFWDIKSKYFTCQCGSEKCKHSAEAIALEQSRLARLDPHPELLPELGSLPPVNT
Test: G9a AlphaLISA enzymatic activity assay
Type: biochemical
Details: negative log of IC50 in molar, 0.15 nM G9a, 15 uM S-adenosyl-methionine, 100 nM biotinylated histone 3 peptide (1-21)
Text: The G9a AlphaLISA assay was used to detect the methyl modifications of a biotinylated histone H3 peptide by the compounds. These modifications are done by the histone methyl transferase activity of the G9a enzyme. The assay consists of reading a chemiluminescent signal at 615 nm; this signal is generated by a laser excitation at 680 nm that transfers a reactive singlet oxygen between the donor beads and acceptor beads. Donor beads are streptavidin conjugated and bind to the biotin on the peptide. Acceptor beads are conjugated with an antibody that recognizes the specific G9a methyl mark on the peptide. If there is a methyl mark on the peptide, the acceptor beads will bind to the peptide. Upon binding, the acceptor beads will be in close proximity (<200 nm) of the donor beads and when the donor beads are excited, the transfer of the oxygen can occur and a strong signal will be generated. If there is no methyl mark, the interaction between beads will not occur and signal will be at background levels.
For the assay, the following buffer was used to set up reactions: 50 mM Tris-HCl pH9, 50 mM NaCl, 0.01% Tween-20 and 1 mM DTT (added fresh prior to starting the reactions). […] The reaction is incubated at rt for 1 hour and subsequently quenched by the addition of the acceptor beads (anti-H3k9me2 AlphaLISA acceptor beads, PerkinElmer #AL117) at a final concentration of 20 ug/mL. The acceptor beads are incubated for 1 hour. After 1 hour, the donor beads are added at a final concentration of 20 ug/mL (Alpha Streptavidin donor beads, PerkinElmer #6760002). Donor beads are incubated for 0.5 hours. Both donor and acceptor beads are resuspended in AlphaLISA 5X Epigenetics Buffer 1 Kit (PerkinElmer #AL008) prior to addition to the reaction. All manipulations and incubations with the donor and acceptor beads are done in subdued light. Signal is detected in an EnVision plate reader in Alpha mode. See ACS Med Chem Lett. 2014; 5(2):205-9.
Percent inhibition was calculated for each compound dilution and the concentration that produced 50% inhibition was calculated. This value is presented as the pIC50, which is the negative log of the IC50 value in molar.

Row | pIC50 | SMILES
1 | 7.45 | CCNc1c2c(nc3cc(OCCCN4CCCC4)c(OC(F)F)cc13)CCC2 [Example 30, 7-(difluoromethoxy)-N-ethyl-6-[3-(pyrrolidin-1-yl)propoxy]-1H,2H,3H-cyclopenta[b]quinolin-9-amine]
2 | 6.96 | CCCNc1c2c(nc3cc(OCCCN4CCCC4)c(OC(F)F)cc13)CCC2 [Example 31, 7-(difluoromethoxy)-N-propyl-6-[3-(pyrrolidin-1-yl)propoxy]-1H,2H,3H-cyclopenta[b]quinolin-9-amine]
3 | 6.97 | COCCNc1c2c(nc3cc(OCCCN4CCCC4)c(OC(F)F)cc13)CCC2 [Example 32, 7-(difluoromethoxy)-N-(2-methoxyethyl)-6-[3-(pyrrolidin-1-yl)propoxy]-1H,2H,3H-cyclopenta[b]quinolin-9-amine]
4 | 6.84 | COCCCNc1c2c(nc3cc(OCCCN4CCCC4)c(OC(F)F)cc13)CCC2 [Example 33, 7-(difluoromethoxy)-N-(3-methoxypropyl)-6-[3-(pyrrolidin-1-yl)propoxy]-1H,2H,3H-cyclopenta[b]quinolin-9-amine]
5 | 7.54 | CNc1c2c(nc3cc(OCCCN4CCCC4)c(OC(F)F)cc13)CCC2 [Example 34, 7-(difluoromethoxy)-N-methyl-6-[3-(pyrrolidin-1-yl)propoxy]-1H,2H,3H-cyclopenta[b]quinolin-9-amine]
6 | 7.20 | CC(C)Nc1c2c(nc3cc(OCCCN4CCCC4)c(OC(F)F)cc13)CCC2 [Example 35, 7-(difluoromethoxy)-N-(propan-2-yl)-6-[3-(pyrrolidin-1-yl)propoxy]-1H,2H,3H-cyclopenta[b]quinolin-9-amine]
7 | 7.71 | CNc1c2c(nc3cc(OCCCN4CCCC4)c(OC)cc13)C1CCCC2C1 (stereo not shown) [Example 36, 7-methoxy-N-methyl-6-[3-(pyrrolidin-1-yl)propoxy]-3-azatetracyclo[10.3.1.0^{2,11}.0^{4,9}]hexadeca-2,4,6,8,10-pentaen-10-amine]
8 | 6.97 | COCCNc1c2c(nc3cc(OCCCN4CCCC4)c(OC)cc13)CCCCC2 [Example 37, 2-methoxy-N-(2-methoxyethyl)-3-[3-(pyrrolidin-1-yl)propoxy]-6H,7H,8H,9H,10H-cyclohepta[b]quinolin-11-amine]
9 | 6.67 | COC[C@H](C)Nc1c2c(nc3cc(OCCCN4CCCC4)c(OC)cc13)CCCCC2 [Example 38, 2-methoxy-N-[(2S)-1-methoxypropan-2-yl]-3-[3-(pyrrolidin-1-yl)propoxy]-6H,7H,8H,9H,10H-cyclohepta[b]quinolin-11-amine]
10 | 7.24 | COc1cc2c(NCCC(C)(C)O)c3c(nc2cc1OCCCN1CCCC1)CCCCC3 [Example 39, 4-({2-methoxy-3-[3-(pyrrolidin-1-yl)propoxy]-6H,7H,8H,9H,10H-cyclohepta[b]quinolin-11-yl}amino)-2-methylbutan-2-ol]
11 | 7.39 | COc1cc2c(NCC3CC3)c3c(nc2cc1OCC(O)CN1CCCC1)CCC3 (stereo not shown) [Example 40, 1-({9-[(cyclopropylmethyl)amino]-7-methoxy-1H,2H,3H-cyclopenta[b]quinolin-6-yl}oxy)-3-(pyrrolidin-1-yl)propan-2-ol]
12 | 7.47 | CCOCCNc1c2c(nc3cc(COCCN4CCCC4)c(OC)cc13)CCC2 [Example 41, N-(2-ethoxyethyl)-7-methoxy-6-{[2-(pyrrolidin-1-yl)ethoxy]methyl}-1H,2H,3H-cyclopenta[b]quinolin-9-amine]
13 | 7.01 | FC(F)Oc1cc2c(NCC3CC3)c3c(nc2cc1OCCCN1CCCC1)CCC3 [Example 42, N-(cyclopropylmethyl)-7-(difluoromethoxy)-6-[3-(pyrrolidin-1-yl)propoxy]-1H,2H,3H-cyclopenta[b]quinolin-9-amine]
14 | 7.40 | COCCNc1c2c(nc3cc(OCCCN4CCCC4)c(OC)cc13)C1CCCC2C1 (stereo not shown) [Example 43, 7-methoxy-N-(2-methoxyethyl)-6-[3-(pyrrolidin-1-yl)propoxy]-3-azatetracyclo[10.3.1.0^{2,11}.0^{4,9}]hexadeca-2,4,6,8,10-pentaen-10-amine]
15 | 6.78 | COc1cc2c(NCC3CC3)c3c(nc2cc1OC[C@H](C)CN1CCCC1)CCC3 [Example 44, N-(cyclopropylmethyl)-7-methoxy-6-[(2R)-2-[(pyrrolidin-1-yl)methyl]propoxy]-1H,2H,3H-cyclopenta[b]quinolin-9-amine]
16 | 7.76 | COc1cc2c(NC(C)C)c3c(nc2cc1OCCOCCN(C)C)CCC3 [Example 45, 6-{2-[2-(dimethylamino)ethoxy]ethoxy}-7-methoxy-N-(propan-2-yl)-1H,2H,3H-cyclopenta[b]quinolin-9-amine]
17 | 5.51 | CNc1c2c(nc3cc(OCCCNC(C)=O)c(OC)cc13)CCC2 [Example 46, N-(3-{[7-methoxy-9-(methylamino)-1H,2H,3H-cyclopenta[b]quinolin-6-yl]oxy}propyl)acetamide]
18 | 5.87 | CNc1c2c(nc3cc(OCCCN4C5CCC4CC5)c(OC)cc13)CCC2 [Example 47, 6-(3-{7-azabicyclo[2.2.1]heptan-7-yl}propoxy)-7-methoxy-N-methyl-1H,2H,3H-cyclopenta[b]quinolin-9-amine]
19 | 6.22 | CNc1c2c(nc3cc(OCCCN4CCCC4)c(OC(F)(F)F)cc13)CCC2 [Example 48, N-methyl-6-[3-(pyrrolidin-1-yl)propoxy]-7-(trifluoromethoxy)-1H,2H,3H-cyclopenta[b]quinolin-9-amine]
20 | 6.19 | CCNc1c2c(nc3cc(OCCCN4CCCC4)c(OC(F)(F)F)cc13)CCC2 [Example 49, N-ethyl-6-[3-(pyrrolidin-1-yl)propoxy]-7-(trifluoromethoxy)-1H,2H,3H-cyclopenta[b]quinolin-9-amine]
21 | 6.11 | COCCNc1c2c(nc3cc(OCCCN4CCCC4)c(OC(F)(F)F)cc13)CCC2 [Example 50, N-(2-methoxyethyl)-6-[3-(pyrrolidin-1-yl)propoxy]-7-(trifluoromethoxy)-1H,2H,3H-cyclopenta[b]quinolin-9-amine]
22 | 6.09 | CNc1c2c(nc3cc(OCCCN(C)CCF)c(OC)cc13)CCC2 [Example 55, 6-{3-[(2-fluoroethyl)(methyl)amino]propoxy}-7-methoxy-N-methyl-1H,2H,3H-cyclopenta[b]quinolin-9-amine]
23 | 5.98 | CCNc1c2c(nc3cc(OCCCN(C)CCF)c(OC)cc13)CCC2 [Example 56, N-ethyl-6-{3-[(2-fluoroethyl)(methyl)amino]propoxy}-7-methoxy-1H,2H,3H-cyclopenta[b]quinolin-9-amine]
24 | 5.83 | CCOCCNc1c2c(nc3cc(OCCCN(C)CCF)c(OC)cc13)CCC2 [Example 57, N-(2-ethoxyethyl)-6-{3-[(2-fluoroethyl)(methyl)amino]propoxy}-7-methoxy-1H,2H,3H-cyclopenta[b]quinolin-9-amine]
25 | 5.56 | CCN(CCCOc1cc2nc3c(c(NC)c2cc1OC)CCC3)CCOC [Example 58, 6-{3-[ethyl(2-methoxyethyl)amino]propoxy}-7-methoxy-N-methyl-1H,2H,3H-cyclopenta[b]quinolin-9-amine]
